Experimental data published in patent publication US9427402B2, “Preparation for improving solubility of poorly soluble drug” (Shionogi & Co. Ltd., priority 2010, dated 2016).
In brackets after ≈: the same amount, converted by molar mass. Like-named read-outs stand apart in the source and are kept apart here.

Experiment: Solubility evaluation of drugs (buffer solutions, 37° C., HPLC)
Format: physicochemical
Conditions: for solubility in words: acidic / neutral solvents, conclusion from Table 1; for solubility at 3 h: thermodynamic from solid
Protocol: A solvent was added to a drug, and ultrasonic irradiation treatment was performed on the resulting solution. The solution was agitated for 3 hours at 37° C. After 3 hours, the sample was filtered with a 0.45 μm filter, and the concentration of the drug in the filtrate was measured by a HPLC method. The solvents used were 100 mM of a citrate buffer solution (pH 4), 100 mM of a phosphate buffer (pH 7) and 100 mM of carbonic acid buffer solution (pH 9).

[1] = aqueous buffer, 100 mM citrate buffer solution (pH 4), 37° C., 3 hours, read-out: Solubility pH 4
[2] = aqueous buffer, 100 mM phosphate buffer (pH 7), 37° C., 3 hours, read-out: Solubility pH 7

| solubility at 3 h (aqueous buffer, 100 mM carbonic acid buffer solution (pH 9), 37° C., 3 hours, read-out: Solubility pH 9) [µg/mL] | solubility at 3 h [1] [µg/mL] | solubility at 3 h [2] [µg/mL] | solubility at 3 h (buffer solution, 37 °C, pH 7, aqueous buffer, solvent with a pH of 7 or less, read-out: solubility in a solvent with a pH of 7 or less) [µg/mL] | SMILES | solubility in words |
| --- | --- | --- | --- | --- | --- |
| 7.7 (≈ 13 µM) | ≤ 0.0004 | ≤ 0.0004 | ≤ 0.0004 | CCCCCCO[C@@H](C)c1cccc(-c2csc(NC(=O)c3cc(Cl)c(/C=C(\C)C(=O)O)c(Cl)c3)n2)c1OC [Compound C-3B, (S)-(E)-3-(2,6-dichloro-4-{4-[3-(1-hexyloxyethyl)-2-methyloxyphenyl]thiazole 2-ylcarbamoyl}phenyl)-2-methylacrylic acid] | poorly soluble in an acidic and a neutral solvents |
|  | 0.5 (≈ 1.4 µM) | 25 (≈ 69.9 µM) |  | COc1ccc2c(c1)c(CC(=O)O)c(C)n2C(=O)c1ccc(Cl)cc1 [Indomethacin, indomethacin, reference compound] | poorly soluble in an acidic solvent |
